Assay results reported in patent publication EP4463162B1, “CONNEXIN 43 FOR USE IN TREATING BRCA1/2-MUTATED CANCER” (Fundación Profesor Novoa Santos, priority 2022, dated 2023).

How the values were obtained:
[1] = test system: HCC1937 cells; experiment: Cell culture under Anoikis-inducing conditions, western blot and imaging; format: cell-based, human
Procedure: Protein extracts were mixed with loading buffer, which consisted of 10 % (v/v) β-mercaptoethanol (Sigma-Aldrich), 10 % SDS, 50 % (v/v) glycerol, 200 mM Tris-HCl pH 6.8 and 0.1 % bromophenol blue (Sigma-Aldrich). They were boiled at 95 °C for 8 min and 20-30 µg protein were loaded into 8, 10 or 15 % acrylamide/bis-acrylamide self-made gels, depending on the molecular weight of the target protein/s to investigate. Gels were run at 80 V for approximately 2 h using a Mini-PROTEAN Tetra electrophoresis system (BioRad), and then transferred to methanol-preactivated polyvinylidene fluoride (PVDF) membranes (Millipore) at 100 V and 4 °C for 1-1.5 h with a Mini Trans-Blot Electrophoretic Transfer Cell (BioRad). Afterwards, membranes with the transferred proteins were stained with ATX Ponceau S red staining solution (Sigma-Aldrich) for 10 min at room temperature, photographed in an Amersham Imager 600 (GE Healthcare) and unstained with distilled water. They were then blocked for 1 h at room temperature with 5 % skim milk (Sigma-Aldrich) diluted in TBST buffer (Tris-buffered saline TBS composed of 20 mM Tris and 150 mM NaCl, supplemented with 0.05 % (v/v) Tween-20, Sigma-Aldrich) with shaking. Next, membranes were incubated overnight at 4 °C with rotation with primary antibodies of interest (see antibody references in Table 3), diluted in 5 % skim milk in TBST. After 4-5 TBST washes (5 min/wash), membranes were incubated for 1 h at room temperature with rotation with secondary antibodies conjugated to horseradish peroxidase (HRP) (see antibody references in Table 3), diluted in 5 % skim milk in TBST. Membranes were rinsed again 4-5 times (5 min/wash) with TBST and the signal was developed with Pierce ECL Western Blotting Substrate (Thermo Fisher Scientific), in either a LAS-3000 Imager (Fujifilm) or an Amersham Imager 600 (GE Healthcare). When necessary, membranes were stripped for 15 min with a pH 2.2 buffer composed of […], 0.5 g SDS and 5 mL Tween20 in 500 mL distilled water. Once stripped, membranes were washed with TBST for 15 min, re-blocked with 5 % skim milk and re-probed with the antibodies of choice. Ponceau staining and western blot images were analysed and their band intensities quantitated with Image J software.
HCC1937 cells were cultured under anchorage-independent growth conditions for 48 h. For this purpose, non-adherent 90 mm polystyrene Petri dishes (Thermo Fisher Scientific) were coated with 10 mg/ml poly-HEMA (Sigma-Aldrich), which makes the dish surface highly repellent to cells, promoting their culture under forced-suspension conditions. […] Images of the cultures were taken at 0 and 48 h, and cell pellets were then collected for western blot analysis.
Anoikis refers to a form of programmed cell death induced by disruption of cell adhesion of normal epithelial cells that detach from the surrounding extracellular matrix. Anoikis resistance has been identified as a hallmark of cancer cells, as survival of normally adherent cells in suspension conditions can enable them to metastasize to distant sites. It has been studied both in the presence and absence of serum; serum deprivation constitutes another way of measuring cell resilience under adverse circumstances, as fetal bovine serum (FBS) contains a variety of growth factors and other elements required for cell survival in culture. When cultured under anchorage-independent/forced suspension conditions for 48 h (Figure 10.C), Cx43_HCC1937 cells formed smaller multicellular aggregates (dashed red lines) than EV_HCC1937, particularly in the absence of FBS.

[2] = test system: control empty vector (EV) HCC1937 cells; experiment: 48 h olaparib dose-response curve, cell viability; format: cell-based; details: Homo sapiens, HCC1937, 48 h
[3] = test system: SNU251 cells; experiment: Proliferation assay (Cell Counting Kit-8); format: cell-based, human; details: Cx43-restored SNU251 vs EV, 100 and 200 µM olaparib, 96 h, beginning at 48 h
Procedure: Proliferation of tumour cell lines was evaluated using the Cell Counting Kit-8 (Dojindo Molecular Technologies). This kit comprises WST-8, a highly water-soluble tetrazolium salt, which upon reduction by cellular dehydrogenases of viable cells, gives rise to a yellow formazan dye that is solube in cell culture media and can be quantitated. Briefly, similar number of cells (1 000-5 000) were plated in 96-well plates (Corning) and left to grow for the desired time period under different treatment conditions. Then, medium was renewed (100 µL volume/well) and 10 µL of CCK-8 reagent were added to each well. Plates were incubated in the dark for 3 h at 37 °C, and absorbance was measured at 450 nm in a NanoQuant Infinite 200 plate reader (Tecan).
In order to complement previous results with another clinically relevant PARPi-treated cancer, assays were repeated with BRCA1 mutated ovarian cancer cell line SNU251, efficiently nucleofected with EV or Cx43-restituting plasmids (Figure 8). SNU251 wild type (EV) cells had no native Cx43 expression, as assayed by western blot ( Figure 8.A).
To further characterize its involvement in BRCA1/2 mutated cancer, Cx43 was restituted by plasmid transfection in BRCA1 mutated TNBC and ovarian carcinoma cell lines, HCC1937 and SNU251, respectively. […]

[4] = Cx43_HCC1937, 50 µM olaparib, 48 h Anoikis-inducing conditions
[5] = EV_HCC1937, 50 µM olaparib, 48 h Anoikis-inducing conditions

For O=C(c1cc(Cc2n[nH]c(=O)c3ccccc23)ccc1F)N1CCN(C(=O)C2CC2)CC1 [Olaparib, olaparib], the “cell aggregates in suspension” value ([1]; 50 µM olaparib, 48 h, effect more pronounced in Cx43_HCC1937 than EV) was “partial disintegration of these clusters”, the “Total protein PARylation” value [1, 4] was “decrease” and the “cleaved caspase 3 levels” value [1, 4] was “further increased this cleavage”. For the same compound, the γH2AX ([1]; Cx43_HCC1937, 50 µM olaparib, 48 h Anoikis-inducing conditions, absence of serum) was “further exacerbated this outcome”, the “Total protein PARylation” value [1, 5] was “rise” and the “cleaved caspase 3 levels” value [1, 5] was “no significant changes”. The IC50 [2] was 602 µM and the “response to olaparib (proliferation)” value [3] was “significantly better response to olaparib than EV cells”.
